Source: ChEMBL document CHEMBL1201862, “PubChem BioAssay data set” (2004)
Active and inactive are the calls of the source.

Experiments:
Assay type in all cases: functional
Caspase-3 = biological target: T1, Caspase-3 (Homo sapiens, UniProt P42574); assay: inhibition of recombinant caspase-3 activity – biochemical, luminescence, set 2, selectivity assay for SENP protease inhibitor project, SAR follow-up (AID 588599)
T1 sequence (P42574 whole entry): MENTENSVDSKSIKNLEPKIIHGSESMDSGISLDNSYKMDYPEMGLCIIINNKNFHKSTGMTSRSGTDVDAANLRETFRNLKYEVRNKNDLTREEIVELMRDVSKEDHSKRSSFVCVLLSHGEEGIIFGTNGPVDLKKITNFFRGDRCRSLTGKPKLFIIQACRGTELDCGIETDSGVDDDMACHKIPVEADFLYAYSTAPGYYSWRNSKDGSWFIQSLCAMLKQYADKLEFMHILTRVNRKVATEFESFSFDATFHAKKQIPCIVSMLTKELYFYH

[1] = biological target: T2, Sentrin-specific protease 8 (Homo sapiens, UniProt Q96LD8); assay: inhibition of sentrin protease 8 – biochemical, luminescence, set 2, SAR follow-up (AID 588601)
T2 sequence (Q96LD8 whole entry): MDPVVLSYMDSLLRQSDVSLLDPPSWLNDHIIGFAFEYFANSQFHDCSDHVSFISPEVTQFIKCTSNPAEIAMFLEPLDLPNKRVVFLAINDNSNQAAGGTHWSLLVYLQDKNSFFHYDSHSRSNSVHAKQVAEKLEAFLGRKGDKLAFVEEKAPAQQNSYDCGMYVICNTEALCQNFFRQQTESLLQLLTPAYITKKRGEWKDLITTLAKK

[2] = biological target: T3, Sentrin-specific protease 7 (Homo sapiens, UniProt Q9BQF6); assay: inhibition of human SENP7 cleavage activity – biochemical, luminescence, set 2, SAR follow-up (AID 588600)
T3 sequence (Q9BQF6 whole entry): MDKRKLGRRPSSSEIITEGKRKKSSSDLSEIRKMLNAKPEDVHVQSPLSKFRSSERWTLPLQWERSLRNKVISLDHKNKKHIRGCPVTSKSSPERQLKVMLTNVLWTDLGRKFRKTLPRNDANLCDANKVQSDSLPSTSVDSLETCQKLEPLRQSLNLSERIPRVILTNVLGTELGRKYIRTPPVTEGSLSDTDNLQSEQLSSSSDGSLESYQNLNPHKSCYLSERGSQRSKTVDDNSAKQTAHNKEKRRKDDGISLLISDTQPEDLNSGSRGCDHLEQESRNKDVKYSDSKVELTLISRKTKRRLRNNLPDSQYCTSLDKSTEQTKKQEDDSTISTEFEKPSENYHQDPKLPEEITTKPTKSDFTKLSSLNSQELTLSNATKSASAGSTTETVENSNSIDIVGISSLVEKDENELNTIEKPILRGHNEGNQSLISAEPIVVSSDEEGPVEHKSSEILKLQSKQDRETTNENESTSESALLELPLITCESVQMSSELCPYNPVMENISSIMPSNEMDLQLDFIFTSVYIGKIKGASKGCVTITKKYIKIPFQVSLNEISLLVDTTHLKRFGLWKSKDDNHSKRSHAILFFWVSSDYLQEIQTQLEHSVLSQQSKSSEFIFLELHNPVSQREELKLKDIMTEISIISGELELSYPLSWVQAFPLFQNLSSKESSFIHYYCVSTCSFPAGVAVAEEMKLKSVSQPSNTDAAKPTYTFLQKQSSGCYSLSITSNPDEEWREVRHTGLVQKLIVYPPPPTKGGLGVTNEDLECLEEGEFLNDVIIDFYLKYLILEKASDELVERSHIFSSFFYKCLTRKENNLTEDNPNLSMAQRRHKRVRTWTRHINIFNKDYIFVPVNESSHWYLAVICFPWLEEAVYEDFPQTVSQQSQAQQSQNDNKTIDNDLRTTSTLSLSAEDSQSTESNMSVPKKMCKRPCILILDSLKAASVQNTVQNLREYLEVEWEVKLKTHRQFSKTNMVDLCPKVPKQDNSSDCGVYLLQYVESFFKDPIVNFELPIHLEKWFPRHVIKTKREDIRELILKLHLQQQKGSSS

[3] = biological target: T4, Sentrin-specific protease 6 (Homo sapiens, UniProt Q9GZR1); assay: inhibition of human SENP6 catalytic domain – biochemical, luminescence, set 2, SAR follow-up (AID 588598)
T4 sequence (Q9GZR1 whole entry): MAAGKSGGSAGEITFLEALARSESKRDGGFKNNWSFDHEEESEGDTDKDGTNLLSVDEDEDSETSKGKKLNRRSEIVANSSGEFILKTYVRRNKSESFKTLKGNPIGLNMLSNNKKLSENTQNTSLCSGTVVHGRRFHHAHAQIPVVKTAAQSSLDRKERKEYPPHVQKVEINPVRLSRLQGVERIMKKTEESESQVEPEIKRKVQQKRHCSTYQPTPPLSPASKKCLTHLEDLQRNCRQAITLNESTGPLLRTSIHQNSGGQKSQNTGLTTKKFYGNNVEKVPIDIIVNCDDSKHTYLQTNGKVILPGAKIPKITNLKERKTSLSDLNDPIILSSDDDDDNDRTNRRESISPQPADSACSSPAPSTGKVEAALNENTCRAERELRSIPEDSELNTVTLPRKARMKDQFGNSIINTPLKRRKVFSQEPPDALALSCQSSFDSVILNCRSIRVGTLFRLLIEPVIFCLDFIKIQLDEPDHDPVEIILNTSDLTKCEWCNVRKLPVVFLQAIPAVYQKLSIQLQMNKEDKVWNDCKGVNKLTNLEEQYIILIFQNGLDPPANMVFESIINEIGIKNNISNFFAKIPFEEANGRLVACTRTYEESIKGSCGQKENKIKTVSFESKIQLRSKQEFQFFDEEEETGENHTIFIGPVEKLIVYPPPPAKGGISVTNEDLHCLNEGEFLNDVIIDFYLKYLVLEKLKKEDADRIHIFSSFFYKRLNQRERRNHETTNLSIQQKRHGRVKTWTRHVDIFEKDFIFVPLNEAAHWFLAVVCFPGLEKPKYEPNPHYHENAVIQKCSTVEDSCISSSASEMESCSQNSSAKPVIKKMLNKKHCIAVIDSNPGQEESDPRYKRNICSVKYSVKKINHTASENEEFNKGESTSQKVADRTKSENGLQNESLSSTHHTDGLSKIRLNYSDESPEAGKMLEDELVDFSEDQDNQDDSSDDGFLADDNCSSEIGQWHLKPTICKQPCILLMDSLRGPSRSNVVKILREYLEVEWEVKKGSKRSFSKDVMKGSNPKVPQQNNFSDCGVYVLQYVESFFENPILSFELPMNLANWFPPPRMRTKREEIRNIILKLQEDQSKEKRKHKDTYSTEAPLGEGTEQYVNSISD

[4] = viability loss in Vero cells – cell-based, purified and synthesized samples, set 8, cytotoxicity control for M. tuberculosis inhibitor project (AID 602431); conditions: Mycobacterium tuberculosis
[5] = THP-1 cell cytotoxicity, cytotoxicity control, set 6 (AID 602433); conditions: Mycobacterium tuberculosis
[6] = biological target: Sphingosine 1-phosphate receptor 2 (Homo sapiens, UniProt O95136); assay: Late-stage fluorescence-based dose-response cell-based counterscreen assay to identify agonists of the Sphingosine 1-Phosphate Receptor 3 (S1P3): Sphingosine 1-Phosphate Receptor 2 (S1P2) agonist assay.
[7] = biological target: T5, Sphingosine 1-phosphate receptor 4 (Homo sapiens, UniProt O95977); assay: Late-stage fluorescence-based dose-response cell-based counterscreen assay to identify agonists of the Sphingosine 1-Phosphate Receptor 3 (S1P3): Sphingosine 1-Phosphate Receptor 4 (S1P4) agonist assay.
T5 sequence (O95977 whole entry): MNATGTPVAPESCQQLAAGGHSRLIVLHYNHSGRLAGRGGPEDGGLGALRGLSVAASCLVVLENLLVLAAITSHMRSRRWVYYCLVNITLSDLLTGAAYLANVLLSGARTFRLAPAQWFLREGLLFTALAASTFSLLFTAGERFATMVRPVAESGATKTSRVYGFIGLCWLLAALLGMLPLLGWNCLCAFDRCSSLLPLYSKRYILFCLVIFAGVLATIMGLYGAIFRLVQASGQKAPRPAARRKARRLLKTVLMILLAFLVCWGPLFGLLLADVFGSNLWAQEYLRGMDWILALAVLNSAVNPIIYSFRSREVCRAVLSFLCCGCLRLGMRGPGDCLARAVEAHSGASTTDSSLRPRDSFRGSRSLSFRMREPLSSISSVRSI

[8] = biological target: 26S proteasome non-ATPase regulatory subunit 14 (Homo sapiens, UniProt O00487); assay: inhibition of proteasome subunit RPN11 – biochemical, fluorescence polarization, uHTS hits, confirmation (AID 602368)
[9] = biological target: 72 kDa type IV collagenase (Homo sapiens, UniProt P08253); assay: Dose Response validation of uHTS RPN11 inhibitor hits using a MMP-2 Fluorescence assay.
Prothrombin = Prothrombin (Bos taurus, UniProt P00735); assay: thrombin protease inhibitors – biochemical, fluorescence polarization, uHTS hits, dose response (AID 602369)
[10] = biological target: Death-associated protein kinase 3 (Homo sapiens, UniProt O43293);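 also: measured as one member of a kinome-wide profiling panel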
LIM domain kinase 1 = LIM domain kinase 1 (Homo sapiens, UniProt P53667); assay: Navigating the Kinome. Panel member name: LIMK1
[11] = biological target: Serine/threonine-protein kinase Chk1 (Homo sapiens, UniProt O14757);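 also: measured as one member of a kinome-wide kinase profiling panel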
[12] = biological target: G protein-coupled receptor kinase 5 (Homo sapiens, UniProt P34947); assay: Navigating the Kinome. Panel member name: GPRK5
Chain of G protein-coupled receptor kinase 5 (P34947 whole entry): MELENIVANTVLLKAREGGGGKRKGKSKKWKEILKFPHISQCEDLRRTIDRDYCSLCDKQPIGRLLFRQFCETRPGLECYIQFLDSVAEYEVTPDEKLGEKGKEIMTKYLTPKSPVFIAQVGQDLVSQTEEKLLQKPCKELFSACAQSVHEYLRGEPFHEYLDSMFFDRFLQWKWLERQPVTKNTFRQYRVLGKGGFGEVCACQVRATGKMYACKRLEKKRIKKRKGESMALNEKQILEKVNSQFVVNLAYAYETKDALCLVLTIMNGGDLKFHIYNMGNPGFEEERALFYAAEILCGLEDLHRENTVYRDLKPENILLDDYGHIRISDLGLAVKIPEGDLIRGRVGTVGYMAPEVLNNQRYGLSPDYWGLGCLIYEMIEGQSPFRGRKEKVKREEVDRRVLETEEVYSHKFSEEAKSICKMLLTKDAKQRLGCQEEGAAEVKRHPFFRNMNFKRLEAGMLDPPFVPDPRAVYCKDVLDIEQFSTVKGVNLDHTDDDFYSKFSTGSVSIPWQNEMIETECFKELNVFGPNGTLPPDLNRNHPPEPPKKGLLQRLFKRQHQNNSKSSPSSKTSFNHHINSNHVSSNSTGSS

Chain of 72 kDa type IV collagenase (P08253 whole entry): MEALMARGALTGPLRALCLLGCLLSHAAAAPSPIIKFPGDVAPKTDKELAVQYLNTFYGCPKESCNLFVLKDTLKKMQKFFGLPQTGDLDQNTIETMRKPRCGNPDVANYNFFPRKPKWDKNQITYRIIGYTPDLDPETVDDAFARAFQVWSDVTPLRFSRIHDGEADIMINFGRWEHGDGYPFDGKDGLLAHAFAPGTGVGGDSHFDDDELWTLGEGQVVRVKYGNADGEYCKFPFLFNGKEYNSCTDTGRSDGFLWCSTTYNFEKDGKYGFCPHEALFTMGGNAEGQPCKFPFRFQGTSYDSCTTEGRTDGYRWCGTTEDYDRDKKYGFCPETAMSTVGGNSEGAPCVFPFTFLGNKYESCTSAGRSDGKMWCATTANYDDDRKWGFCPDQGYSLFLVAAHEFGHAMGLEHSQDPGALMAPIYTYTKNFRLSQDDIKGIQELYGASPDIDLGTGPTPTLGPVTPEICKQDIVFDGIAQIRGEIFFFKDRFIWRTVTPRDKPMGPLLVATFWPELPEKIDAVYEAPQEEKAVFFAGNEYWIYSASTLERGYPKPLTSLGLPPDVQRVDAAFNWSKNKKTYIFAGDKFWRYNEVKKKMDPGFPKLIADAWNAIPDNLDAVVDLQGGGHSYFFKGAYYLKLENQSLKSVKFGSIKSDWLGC
Chain of Death-associated protein kinase 3 (O43293 whole entry, the tested form may be a part): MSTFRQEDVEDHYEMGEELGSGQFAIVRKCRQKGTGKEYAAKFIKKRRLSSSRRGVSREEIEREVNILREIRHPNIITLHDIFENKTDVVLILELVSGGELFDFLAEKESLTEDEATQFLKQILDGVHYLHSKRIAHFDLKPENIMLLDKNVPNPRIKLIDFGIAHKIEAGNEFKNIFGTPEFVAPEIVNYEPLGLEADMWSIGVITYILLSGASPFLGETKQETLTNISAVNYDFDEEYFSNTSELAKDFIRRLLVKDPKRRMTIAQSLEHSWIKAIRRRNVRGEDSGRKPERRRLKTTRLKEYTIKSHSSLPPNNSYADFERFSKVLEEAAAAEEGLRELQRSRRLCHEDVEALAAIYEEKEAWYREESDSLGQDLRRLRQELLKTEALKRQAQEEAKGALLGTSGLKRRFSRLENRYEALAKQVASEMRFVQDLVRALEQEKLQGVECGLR
Chain of 26S proteasome non-ATPase regulatory subunit 14 (O00487 whole entry): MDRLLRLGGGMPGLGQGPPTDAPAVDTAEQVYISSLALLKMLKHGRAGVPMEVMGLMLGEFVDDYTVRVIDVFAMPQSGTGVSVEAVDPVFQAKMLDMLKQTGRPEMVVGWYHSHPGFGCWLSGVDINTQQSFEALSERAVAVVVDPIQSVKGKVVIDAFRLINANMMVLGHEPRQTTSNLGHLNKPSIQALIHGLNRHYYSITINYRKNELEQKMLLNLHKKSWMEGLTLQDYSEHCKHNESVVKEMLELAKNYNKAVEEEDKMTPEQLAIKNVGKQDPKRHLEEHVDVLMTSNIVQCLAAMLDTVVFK
Chain of LIM domain kinase 1 (P53667 whole entry, the tested form may be a part): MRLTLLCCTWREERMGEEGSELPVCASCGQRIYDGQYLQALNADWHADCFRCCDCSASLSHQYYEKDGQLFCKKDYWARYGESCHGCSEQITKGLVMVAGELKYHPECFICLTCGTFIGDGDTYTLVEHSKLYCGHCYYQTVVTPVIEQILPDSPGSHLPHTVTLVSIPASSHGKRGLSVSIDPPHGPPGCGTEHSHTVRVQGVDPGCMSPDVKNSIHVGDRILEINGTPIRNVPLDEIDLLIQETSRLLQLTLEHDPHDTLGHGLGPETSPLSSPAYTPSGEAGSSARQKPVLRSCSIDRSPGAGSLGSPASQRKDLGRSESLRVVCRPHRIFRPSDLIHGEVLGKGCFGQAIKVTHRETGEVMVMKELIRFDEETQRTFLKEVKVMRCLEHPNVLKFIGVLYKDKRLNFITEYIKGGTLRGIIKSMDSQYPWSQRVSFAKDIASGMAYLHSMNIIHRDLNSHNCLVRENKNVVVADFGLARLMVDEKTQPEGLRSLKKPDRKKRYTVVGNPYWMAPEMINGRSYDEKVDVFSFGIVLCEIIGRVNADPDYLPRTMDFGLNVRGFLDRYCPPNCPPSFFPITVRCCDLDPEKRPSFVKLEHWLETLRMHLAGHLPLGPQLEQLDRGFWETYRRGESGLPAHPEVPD
Chain of Sphingosine 1-phosphate receptor 2 (O95136 whole entry): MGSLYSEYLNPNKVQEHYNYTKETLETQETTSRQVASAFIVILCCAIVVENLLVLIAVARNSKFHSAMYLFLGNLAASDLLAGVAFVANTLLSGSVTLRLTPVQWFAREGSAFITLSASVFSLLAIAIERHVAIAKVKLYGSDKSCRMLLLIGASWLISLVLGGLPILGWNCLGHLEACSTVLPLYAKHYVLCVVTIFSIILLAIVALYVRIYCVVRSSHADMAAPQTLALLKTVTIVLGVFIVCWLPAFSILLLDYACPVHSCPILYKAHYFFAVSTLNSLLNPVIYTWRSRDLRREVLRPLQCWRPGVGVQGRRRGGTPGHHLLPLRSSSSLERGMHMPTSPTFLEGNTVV
Chain of Serine/threonine-protein kinase Chk1 (O14757 whole entry): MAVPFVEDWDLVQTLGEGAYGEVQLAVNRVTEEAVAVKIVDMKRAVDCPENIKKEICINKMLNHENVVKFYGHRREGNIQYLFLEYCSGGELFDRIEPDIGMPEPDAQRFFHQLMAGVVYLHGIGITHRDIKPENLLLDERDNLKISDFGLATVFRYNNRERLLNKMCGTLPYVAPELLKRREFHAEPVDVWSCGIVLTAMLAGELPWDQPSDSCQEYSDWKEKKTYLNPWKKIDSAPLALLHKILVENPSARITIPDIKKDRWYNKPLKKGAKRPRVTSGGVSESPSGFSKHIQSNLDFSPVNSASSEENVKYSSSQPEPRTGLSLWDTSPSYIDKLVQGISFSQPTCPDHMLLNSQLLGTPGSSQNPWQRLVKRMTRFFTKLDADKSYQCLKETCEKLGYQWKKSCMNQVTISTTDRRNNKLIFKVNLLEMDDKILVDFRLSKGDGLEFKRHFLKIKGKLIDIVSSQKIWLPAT

## Cc1[nH]c2ccccc2c1/C=N/NC(=O)Cc1nnc(N)s1
Caspase-3
  IC50: > 99 µM (inactive)
[1]
  IC50: > 99 µM (inactive)
[2]
  IC50: > 99 µM (inactive)
[3]
  IC50: > 99 µM (inactive)

## O=C(CSc1nc2c(c(=O)[nH]1)CN(Cc1ccccc1)CC2)NC1CCCCC1
[4]
  CC50: > 100 µM (inconclusive)
[5]
  CC50: > 100 µM (inconclusive)

## O=C(c1cc(-c2ccccc2)on1)N(C1CCCCC1)C1CCCCC1
[6]
  EC50: > 50 µM (inactive)
[7]
  EC50: > 50 µM (inactive)

## O=C(N/N=C/c1ccncc1)c1cccc(NC(=O)c2ccc(Cl)cc2)c1
[8]
  IC50: 30.4 µM (active)
[9]
  IC50: > 100 µM (inactive)
Prothrombin
  IC50: > 100 µM (inactive)

## Cc1nn(C)c(C)c2cc([N+](=O)[O-])cc1-2
[10]
  Ki: 3.98 µM (active)
LIM domain kinase 1
  Ki: 2 µM (active)
[11]
  Ki: 1.58 µM (active)
[12]
  Ki: 3.98 µM (active)
